The text below walks through data of patent US12025612B2, “Brown adipocyte progenitors in human skeletal muscle” (Energesis Pharmaceuticals, Inc., priority 2008, dated 2024).

For assay [1], the system named is UCP1 mRNA expression in fetal muscle CD34+ cells. In words: UCP1 mRNA expression in cultured fetal muscle CD34+ cells, quantitative RT-PCR normalized to cyclophilin A. Format: cell-based, human. The conditions noted are these: rosiglitazone 1 μM. The method, then: UCP1 mRNA expression in fetal muscle CD34+ cells could be modulated by drug treatment. Cell-permeating cAMP derivatives strongly stimulated (7 to 8-fold) UCP1 mRNA expression in both primary cultured and expanded cells. The effects of cAMP derivatives, 8-bromo-cAMP, 0.25 mM or (4-chlorophenylthio)-cAMP, 0.25 mM (cAMP) on UCP1 mRNA expression in CD34+ cells in primary culture (PC) or expanded up to passage 3 (P3) are shown in FIG. 3B. All the cells were grown for 4-6 days in EGM2 medium and then placed for 8-12 days in the adipogenic medium described under Materials and Methods. The results are means±s.e.m. of arbitrary values normalized using the corresponding cyclophilin A values. They are expressed in % of their respective untreated (control) values considered as 100% (*p<0.05, n=3-6).
Rosiglitazone, a PPARγ agonist, had no effect in primary culture cells but strongly stimulated (8-fold) UCP1 mRNA expression in expanded cells. The results are expressed as in FIG. 3B (**p<0.01, n=4-7). […]
Total cell RNA was prepared using the kit NucleoSpin® RNAII (Clontech, Palo Alto, Calif.) or Extract-all solution (Eurobio, Courtaboeuf, France) and quantified by Biophotometry (Biophotometer, Eppendor). […] Quantitative real-time PCR was performed using ABI rapid thermal cycler system, and a SYBR Green PCR master mix (Applied Biosystems, Foster City, Calif.). […]

In assay [2] the test system is UCP1 mRNA expression in human skeletal muscle. Put plainly: UCP1 mRNA expression in vastus lateralis muscle biopsies of obese type 2 diabetic patients before and after rosiglitazone, quantitative RT-PCR. Format: in vivo. The following applies: for UCP1 mRNA level after treatment (Rosi), normalized to cyclophilin A: after 8 weeks. The method, then: Since the PPARγ agonist rosiglitazone was a strong inducer of UCP1 mRNA expression in muscle CD34+ cells in culture, the effect of this compound in vivo in humans was investigated. Vastus lateralis muscle biopsies from 7 obese patients with type 2 diabetes mellitus treated for the management of their metabolic syndrome with rosiglitazone were used. The biopsies were obtained before and after 8 weeks of treatment with rosiglitazone (2×4 mg per day). […] In that study rosiglitazone, concomitantly with the improvement in insulin sensitivity, increased the level of expression of UCP1 in muscle by about 1.6-fold. […] The results are the means±s.e.m. of arbitrary values normalized using the corresponding cyclophilin A values (n=7, *p<0.05 vs. control).
In FIG. 5, showing UCP1 mRNA levels in skeletal muscle biopsies from a patient group (n=7), “control” corresponds to levels before treatment, and “Rosi” corresponds to levels after treatment (8 weeks) with rosiglitazone. Being a longitudinal study the effect of rosiglitazone on UCP1 levels in each individual (comparison of individual values for the “control”-before and “Rosi”-after conditions) were determined. Starting with 25 ng cDNA (produced by reverse transcription of RNA) the threshold of detection (Ct) during real-time PCR was about 22 for UCP1 and about 18 for cyclophilin.
Human fetal tissues were obtained anonymously, following spontaneous, voluntary or therapeutic terminations of pregnancy, from Magee Women Hospital, University of Pittsburgh, in compliance with the Institutional Review Board protocol. Developmental age (16 to 24 weeks of gestation) was estimated by measuring foot length. Informed consent to the use of fetal tissues was obtained from the patients in all instances. Adult human discarded abdominal subcutaneous WAT, originating from 45-55 year old patients undergoing plastic surgery performed one year after gastric bypass, was kindly provided by Dr Peter Rubin (Division of Plastic Surgery, University of Pittsburgh). The adult skeletal muscle tissue used for cell sorting was obtained post mortem from 50-78 year-old donors. The adult skeletal muscle used for the first group of RT-PCR studies was obtained from the rectus abdominus during surgery for either lap banding, inguinal hernia or hysterectomy of 10 lean male and female subjects. All subjects agreed to donate muscle samples during their operations and the protocol was approved by the Medical Ethical Review Committee of Deakin University. The average ages were 45±3 years and the average body mass index was 22.2±0.8. The adult skeletal muscle used for the second group of RT-PCR studies was obtained from the vastus lateralis of 7 obese type 2 diabetic male and female patients before and after 8 weeks of treatment with rosiglitazone (2×4 mg per day). The average age was 63±4 years and the average body mass index was […]. The complete clinical profile of the patients has been described in a previous publication. All subjects agreed to donate muscle samples, and the protocol was approved by the Medical Ethical Review Committee of Maastricht University.
Total cell RNA was prepared using the kit NucleoSpin® RNAII (Clontech, Palo Alto, Calif.) or Extract-all solution (Eurobio, Courtaboeuf, France) and quantified by Biophotometry (Biophotometer, Eppendor). Oligo-dT primed First strand cDNA were synthesized using the Superscript™ II RNase H Reverse Transcription kit (Invitrogen, Carlsbad, Calif.) and oligo-dT primers or the High Capacity cDNA Reverse Transcription kit (Applied Biosystems, Foster City, Calif.) and random primers. Quantitative real-time PCR was performed using ABI rapid thermal cycler system, and a SYBR Green PCR master mix (Applied Biosystems, Foster City, Calif.). Cyclophilin A was used as a control to account for any variations due to the efficiency of the reverse transcription. […]

As to `CN(CCOc1ccc(CC2SC(=O)NC2=O)cc1)c1ccccn1` (centres unmarked) [rosiglitazone], the “stimulation of UCP1 mRNA expression” value in assay [1] (CD34+ cells expanded up to passage 3 (P3)) is listed as 8 fold. The “effect on UCP1 mRNA expression” value in assay [1] (CD34+ cells in primary culture (PC)) is “no effect”. The “increase of the level of expression of UCP1 in muscle” value in assay [2] (7 obese type 2 diabetic patients, 8 weeks, 2×4 mg per day, after vs before treatment, mean) is “about 1.6 fold”. Further, the “UCP1 level at end of treatment in % of before treatment” value came out at 150% in assay [2] (Patient 1, 8 weeks); 100% in assay [2] (Patient 2, 8 weeks); 180% in assay [2] (Patient 3, 8 weeks); 280% in assay [2] (Patient 4, 8 weeks); 108% in assay [2] (Patient 5, 8 weeks); 410% in assay [2] (Patient 6, 8 weeks). For the same compound, in assay [2] (Patient 7, 8 weeks), the “UCP1 level at end of treatment in % of before treatment” value stood at 110%. Besides, the “UCP1 level increase, end of treatment vs. before” value is on record as 50% in assay [2] (Patient 1, 8 weeks); 80% in assay [2] (Patient 3, 8 weeks); 180% in assay [2] (Patient 4, 8 weeks); 8% in assay [2] (Patient 5, 8 weeks); 310% in assay [2] (Patient 6, 8 weeks); 10% in assay [2] (Patient 7, 8 weeks). Also, the “UCP1 mRNA level after treatment (Rosi), normalized to cyclophilin A” value worked out at 652 arbitrary units in assay [2] (Patient 1); 453 arbitrary units in assay [2] (Patient 2); 677 arbitrary units in assay [2] (Patient 3); 730 arbitrary units in assay [2] (Patient 4); 600 arbitrary units in assay [2] (Patient 5); 556 arbitrary units in assay [2] (Patient 6). For the same compound, in assay [2] (Patient 7), the “UCP1 mRNA level after treatment (Rosi), normalized to cyclophilin A” value came to 142 arbitrary units.
